Laboratory results from patent publication US20230365592A1 (Agios Pharmaceuticals, Inc., priority 2022, published 2023).

biological target: T1, human PAH with the R408W mutation (Homo sapiens, UniProt P00439, R408W); assay: Cell Based Phenylalanine Flux Assay; details: A375 cells expressing human R408W PAH; 24 hrs compound incubation; 13C-Tyrosine by LC-MS; average where tested multiple times; read-out: AC50;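 note: after compound treatment, cells received sepiapterin plus isotope-labelled Phenylalanine for 4 hours, then labelled Tyrosine in the medium was quantified, 10-point 2-fold dilution series run in duplicate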
T1 construct: expressed in transfected cells
T1 sequence (P00439 1-452 R408W): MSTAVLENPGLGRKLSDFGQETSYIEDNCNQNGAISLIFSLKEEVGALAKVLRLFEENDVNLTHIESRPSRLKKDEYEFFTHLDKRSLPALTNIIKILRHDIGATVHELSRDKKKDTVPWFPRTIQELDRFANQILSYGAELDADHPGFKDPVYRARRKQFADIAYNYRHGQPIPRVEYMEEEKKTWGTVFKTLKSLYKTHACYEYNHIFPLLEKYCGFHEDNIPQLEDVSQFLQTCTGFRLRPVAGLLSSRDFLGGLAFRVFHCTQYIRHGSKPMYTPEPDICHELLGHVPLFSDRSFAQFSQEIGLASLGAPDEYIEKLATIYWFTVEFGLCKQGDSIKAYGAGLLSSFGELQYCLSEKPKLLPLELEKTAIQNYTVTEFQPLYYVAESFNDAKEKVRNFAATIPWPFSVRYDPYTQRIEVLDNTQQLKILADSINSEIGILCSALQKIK
Description: Compounds were resuspended in DMSO, and 2-fold serial dilutions were performed to generate a 10-point dose curve. Compounds were added to plated cells in a total volume of 100 µl, and a final DMSO concentration of 0.5%. Each compound was tested in duplicate. Following compound addition, cells were placed in a 5% CO2, 37° C. tissue culture incubator for 24 hrs. After the incubation period, 20 µM sepiapterin and 800 µM 13C9,15N-Phenylalanine were added. After 4 hours, cell media was removed. An aliquot of 10 µl of cell media was combined with 200 µl of extraction buffer (80% acetonitrile/20% H2O) for each well. Determination of ^13C-Tyrosine concentration was assessed by liquid chromatography mass spectrometry.
Where a compound was tested multiple times, the average value of the tests is reported.

SMILES | AC50 [nM]
Cc1cccn2nc([C@H]3c4nc[nH]c4CCN3c3nnc(C(F)F)o3)cc12 [Example 1710, (R)-2-(difluoromethyl)-5-(4-(4-methylpyrazolo[1,5-a]pyridin-2-yl)-6,7-dihydro-1H-imidazo[4,5-c]pyridin-5(4H)-yl)-1,3,4-oxadiazole] | > 5000
Cc1cccn2nc([C@@H]3c4nc[nH]c4CCN3c3nnc(C(F)F)o3)cc12 [Example 1711, (S)-2-(difluoromethyl)-5-(4-(4-methylpyrazolo[1,5-a]pyridin-2-yl)-6,7-dihydro-1H-imidazo[4,5-c]pyridin-5(4H)-yl)-1,3,4-oxadiazole] | 500 to 1000
Cc1ccc2c(C(=O)N3CCc4[nH]cnc4[C@@H]3c3cc4c(C(F)F)cccn4n3)cnn2c1 [Example 1713, (R)-(4-(4-(difluoromethyl)pyrazolo[1,5-a]pyridin-2-yl)-6,7-dihydro-1H-imidazo[4,5-c]pyridin-5(4H)-yl)(6-methylpyrazolo[1,5-a]pyridin-3-yl)methanone] | > 5000
Cc1ccc2c(C(=O)N3CCc4[nH]cnc4[C@H]3c3cc4c(Cl)cccn4n3)cnn2c1 [Example 1714, (S)-(4-(4-chloropyrazolo[1,5-a]pyridin-2-yl)-6,7-dihydro-1H-imidazo[4,5-c]pyridin-5(4H)-yl)(6-methylpyrazolo[1,5-a]pyridin-3-yl)methanone] | < 500
O=C(c1cnn2cc(C3CC3)ccc12)N1CCc2[nH]cnc2[C@H]1c1cc2c(C(F)(F)F)cccn2n1 [Example 1716, (S)-(6-cyclopropylpyrazolo[1,5-a]pyridin-3-yl)(4-(4-(trifluoromethyl)pyrazolo[1,5-a]pyridin-2-yl)-6,7-dihydro-1H-imidazo[4,5-c]pyridin-5(4H)-yl)methanone] | < 500
COc1ccc2c(C(=O)N3CCc4[nH]cnc4[C@H]3c3cc4cccc(C)n4n3)cnn2c1 [Example 1718, (S)-(6-methoxypyrazolo[1,5-a]pyridin-3-yl)(4-(7-methylpyrazolo[1,5-a]pyridin-2-yl)-6,7-dihydro-1H-imidazo[4,5-c]pyridin-5(4H)-yl)methanone] | 500 to 1000
COc1ccc2c(C(=O)N3CCc4[nH]cnc4[C@@H]3c3cc4cccc(C)n4n3)cnn2c1 [Example 1719, (R)-(6-methoxypyrazolo[1,5-a]pyridin-3-yl)(4-(7-methylpyrazolo[1,5-a]pyridin-2-yl)-6,7-dihydro-1H-imidazo[4,5-c]pyridin-5(4H)-yl)methanone] | 1000 to 5000
COc1ccc2c(C(=O)N3CCc4[nH]cnc4[C@H]3c3cc4cccc(F)n4n3)cnn2c1 [Example 1720, (S)-(4-(7-fluoropyrazolo[1,5-a]pyridin-2-yl)-6,7-dihydro-1H-imidazo[4,5-c]pyridin-5(4H)-yl)(6-methoxypyrazolo[1,5-a]pyridin-3-yl)methanone] | 500 to 1000
CC(C)(F)c1nnc(C(=O)N2CCc3[nH]cnc3[C@H]2c2cc3c(OC(F)(F)F)cccn3n2)o1 [Example 1726, (S)-(5-(2-fluoropropan-2-yl)-1,3,4-oxadiazol-2-yl)(4-(4-(trifluoromethoxy)pyrazolo[1,5-a]pyridin-2-yl)-6,7-dihydro-1H-imidazo[4,5-c]pyridin-5(4H)-yl)methanone] | 500 to 1000
O=C(c1cnn2ccccc12)N1CCc2[nH]cnc2[C@H]1c1cc2c(C(F)F)cccn2n1 [Example 1730, (S)-(4-(4-(difluoromethyl)pyrazolo[1,5-a]pyridin-2-yl)-6,7-dihydro-1H-imidazo[4,5-c]pyridin-5(4H)-yl)(pyrazolo[1,5-a]pyridin-3-yl)methanone] | < 500
O=C(c1cnn2ccccc12)N1CCc2[nH]cnc2[C@@H]1c1cc2c(C(F)F)cccn2n1 [Example 1731, (R)-(4-(4-(difluoromethyl)pyrazolo[1,5-a]pyridin-2-yl)-6,7-dihydro-1H-imidazo[4,5-c]pyridin-5(4H)-yl)(pyrazolo[1,5-a]pyridin-3-yl)methanone] | > 5000
FC(F)c1nnc(N2CCc3[nH]cnc3[C@H]2c2cc3c(C(F)F)cccn3n2)o1 [Example 1733, (S)-2-(difluoromethyl)-5-(4-(4-(difluoromethyl)pyrazolo[1,5-a]pyridin-2-yl)-6,7-dihydro-1H-imidazo[4,5-c]pyridin-5(4H)-yl)-1,3,4-oxadiazole] | < 500
FC(F)c1nnc(N2CCc3[nH]cnc3[C@H]2c2cc3c(C(F)(F)F)cccn3n2)o1 [Example 1735, (S)-2-(difluoromethyl)-5-(4-(4-(trifluoromethyl)pyrazolo[1,5-a]pyridin-2-yl)-6,7-dihydro-1H-imidazo[4,5-c]pyridin-5(4H)-yl)-1,3,4-oxadiazole] | < 500
Fc1cccn2nc([C@@H]3c4nc[nH]c4CCN3c3nnc(C(F)F)o3)cc12 [Example 1737, (S)-2-(difluoromethyl)-5-(4-(4-fluoropyrazolo[1,5-a]pyridin-2-yl)-6,7-dihydro-1H-imidazo[4,5-c]pyridin-5(4H)-yl)-1,3,4-oxadiazole] | 500 to 1000
FC(F)c1nnc(N2CCc3[nH]cnc3[C@H]2c2cc3c(Cl)cccn3n2)o1 [Example 1739, (S)-2-(4-(4-chloropyrazolo[1,5-a]pyridin-2-yl)-6,7-dihydro-1H-imidazo[4,5-c]pyridin-5(4H)-yl)-5-(difluoromethyl)-1,3,4-oxadiazole] | < 500
Cc1cccc2cc([C@H]3c4nc[nH]c4CCN3c3nnc(C(F)F)o3)nn12 [Example 1740, (R)-2-(difluoromethyl)-5-(4-(7-methylpyrazolo[1,5-a]pyridin-2-yl)-6,7-dihydro-1H-imidazo[4,5-c]pyridin-5(4H)-yl)-1,3,4-oxadiazole] | > 5000
Cc1cccc2cc([C@@H]3c4nc[nH]c4CCN3c3nnc(C(F)F)o3)nn12 [Example 1741, (S)-2-(difluoromethyl)-5-(4-(7-methylpyrazolo[1,5-a]pyridin-2-yl)-6,7-dihydro-1H-imidazo[4,5-c]pyridin-5(4H)-yl)-1,3,4-oxadiazole] | 500 to 1000

Continued, values first:

AC50 [nM] | SMILES
< 500 | O=C(c1nnc(-c2ccn(C(F)F)n2)o1)N1CCc2[nH]cnc2[C@H]1c1cc2c(OC(F)(F)F)cccn2n1 [Example 1704, (S)-(5-(1-(difluoromethyl)-1H-pyrazol-3-yl)-1,3,4-oxadiazol-2-yl)(4-(4-(trifluoromethoxy)pyrazolo[1,5-a]pyridin-2-yl)-6,7-dihydro-1H-imidazo[4,5-c]pyridin-5(4H)-yl)methanone]
< 500 | O=C(c1nnc(-c2ccn(C(F)(F)F)n2)o1)N1CCc2[nH]cnc2[C@H]1c1cc2c(OC(F)(F)F)cccn2n1 [Example 1706, (S)-(4-(4-(trifluoromethoxy)pyrazolo[1,5-a]pyridin-2-yl)-6,7-dihydro-1H-imidazo[4,5-c]pyridin-5(4H)-yl)(5-(1-(trifluoromethyl)-1H-pyrazol-3-yl)-1,3,4-oxadiazol-2-yl)methanone]
> 5000 | O=C(c1nnc(-c2ccn(C(F)(F)F)n2)o1)N1CCc2[nH]cnc2[C@@H]1c1cc2c(OC(F)(F)F)cccn2n1 [Example 1707, (R)-(4-(4-(trifluoromethoxy)pyrazolo[1,5-a]pyridin-2-yl)-6,7-dihydro-1H-imidazo[4,5-c]pyridin-5(4H)-yl)(5-(1-(trifluoromethyl)-1H-pyrazol-3-yl)-1,3,4-oxadiazol-2-yl)methanone]
500 to 1000 | O=C(c1nnc(-c2ccn(C(F)(F)F)n2)o1)N1CCc2[nH]cnc2[C@H]1c1cc2c(OC(F)F)cccn2n1 [Example 1708, (S)-(4-(4-(difluoromethoxy)pyrazolo[1,5-a]pyridin-2-yl)-6,7-dihydro-1H-imidazo[4,5-c]pyridin-5(4H)-yl)(5-(1-(trifluoromethyl)-1H-pyrazol-3-yl)-1,3,4-oxadiazol-2-yl)methanone]
> 5000 | O=C(c1nnc(-c2ccn(C(F)(F)F)n2)o1)N1CCc2[nH]cnc2[C@@H]1c1cc2c(OC(F)F)cccn2n1 [Example 1709, (R)-(4-(4-(difluoromethoxy)pyrazolo[1,5-a]pyridin-2-yl)-6,7-dihydro-1H-imidazo[4,5-c]pyridin-5(4H)-yl)(5-(1-(trifluoromethyl)-1H-pyrazol-3-yl)-1,3,4-oxadiazol-2-yl)methanone]
> 5000 | COc1cccn2nc([C@H]3c4nc[nH]c4CCN3C(=O)c3nnc(-c4ccn(C(F)F)n4)o3)cc12 [Example 1722, (R)-(5-(1-(difluoromethyl)-1H-pyrazol-3-yl)-1,3,4-oxadiazol-2-yl)(4-(4-methoxypyrazolo[1,5-a]pyridin-2-yl)-6,7-dihydro-1H-imidazo[4,5-c]pyridin-5(4H)-yl)methanone]
500 to 1000 | COc1cccn2nc([C@@H]3c4nc[nH]c4CCN3C(=O)c3nnc(-c4ccn(C(F)F)n4)o3)cc12 [Example 1723, (S)-(5-(1-(difluoromethyl)-1H-pyrazol-3-yl)-1,3,4-oxadiazol-2-yl)(4-(4-methoxypyrazolo[1,5-a]pyridin-2-yl)-6,7-dihydro-1H-imidazo[4,5-c]pyridin-5(4H)-yl)methanone]
500 to 1000 | CC(C)(F)c1nnc(C(=O)N2CCc3[nH]cnc3[C@H]2c2cc3c(OC(F)F)cccn3n2)o1 [Example 1728, (S)-(4-(4-(difluoromethoxy)pyrazolo[1,5-a]pyridin-2-yl)-6,7-dihydro-1H-imidazo[4,5-c]pyridin-5(4H)-yl)(5-(2-fluoropropan-2-yl)-1,3,4-oxadiazol-2-yl)methanone]
> 5000 | CC(C)(F)c1nnc(C(=O)N2CCc3[nH]cnc3[C@@H]2c2cc3c(OC(F)F)cccn3n2)o1 [Example 1729, (R)-(4-(4-(difluoromethoxy)pyrazolo[1,5-a]pyridin-2-yl)-6,7-dihydro-1H-imidazo[4,5-c]pyridin-5(4H)-yl)(5-(2-fluoropropan-2-yl)-1,3,4-oxadiazol-2-yl)methanone]
